This passage reports Ratio and Kd results from ChEMBL document CHEMBL1122454, “Piperazinylimidazo[1,2-a]pyrazines with selective affinity for in vitro alpha-adrenergic receptor subtypes” (J Med Chem, 1983).

For one assay, the species on record is Bos taurus. As to the kind of experiment: Relative affinity for alpha-1 and alpha-2 adrenergic receptors. Further details: reference not given here.
Assay [1] is described as follows: Displacement of [3H]clonidine from alpha-2-adrenergic receptor of calf neocortical membrane. Further details: species or system Bos taurus.
A short description of assay [2]: Displacement of [3H]prazosin from alpha-1-adrenergic receptor of calf neocortical membrane. Further details: species or system Bos taurus.

Consider `ClC1=CN2CCN=C2C(N2CCNCC2)=N1`, for which the Ratio in the assay filed under Bos taurus was 1.9. Moreover, the values for the dissociation constant (Kd) in assay [1] and in assay [2] (read-out: Kd) were 1600 nM and 3000 nM, respectively.

Take `Clc1cnc2c(N3CCNCC3)nccn12`: in the assay filed under Bos taurus, the Ratio worked out at 9.6. Further, the Kd in assay [1] is 290 nM; in assay [2] (read-out: Kd) it was 2780 nM.

In the case of `Clc1cn2ccnc2c(N2CCNCC2)n1`, the Ratio in the assay filed under Bos taurus worked out at 2.8. The Kd was 88 nM in assay [1] and 250 nM in assay [2] (read-out: Kd).

On to `Clc1cncc(N2CCNCC2)n1` [MK-212], for which the Ratio in the assay filed under Bos taurus came to 16. The Kd came out at 150 nM in assay [1] and 2400 nM in assay [2] (read-out: Kd).

As to `Clc1cn2c(Cl)cnc2c(N2CCNCC2)n1`, the Ratio in the assay filed under Bos taurus was determined as 0.4. The values for the dissociation constant Kd in assay [1] and in assay [2] (read-out: Kd) were 1000 nM and 410 nM, respectively.

`c1ccc2c(c1)N=C(N1CCNCC1)C1=NCCN12`: in the assay filed under Bos taurus, the Ratio was 0.72. In addition, the equilibrium dissociation constant (Kd) in assay [1] was determined as 1800 nM; in assay [2] (read-out: Kd), 1300 nM.

Regarding `c1cn2c(N3CCNCC3)cncc2n1`, the Ratio in the assay listed under Bos taurus turned out to be 1.8. Also, the equilibrium dissociation constant (Kd) in assay [1] came out at 28100 nM; in assay [2] (read-out: Kd) it was 51000 nM.

On to `Clc1cn2c3c(nc2c(N2CCNCC2)n1)CCCC3`, for which, in the assay listed under Bos taurus, the Ratio is 0.13. The Kd in assay [1] was 1500 nM; in assay [2] (read-out: Kd), 200 nM.

Take `CN1CCN2c3ccccc3Cc3ccccc3C2C1` (configuration not stated) [MIANSERIN]: in the assay filed under Bos taurus, the Ratio stood at 2.3. Besides, the Kd in assay [1] came to 19 nM; in assay [2], 43 nM.

Turning to `Cc1cnc2c(N3CCNCC3)nc(Cl)cn12`, in the assay listed under Bos taurus, the Ratio worked out at 0.64. For the same molecule, the Kd was determined as 250 nM in assay [1] and 160 nM in assay [2] (read-out: Kd).

In the case of `Clc1cnc2cnc(N3CCNCC3)cn12`, the Ratio in the assay filed under Bos taurus amounted to 0.36. The figures for the Kd in assay [1] and in assay [2] (read-out: Kd) were 18900 nM and 6800 nM, respectively.

On to `c1ccc(-c2cn3ccnc3c(N3CCNCC3)n2)cc1`, for which, in the assay filed under Bos taurus, the Ratio amounted to 0.2. The Kd in assay [1] came out at 1800 nM; in assay [2] (read-out: Kd), 360 nM.

Take `CN1CCN(c2nc(Cl)cn3ccnc23)CC1`: the Ratio in the assay filed under Bos taurus was determined as 2.6. Also, the values for the Kd in assay [1] and in assay [2] (read-out: Kd) were 144 nM and 380 nM, respectively.

Turning to `c1cn2ccnc2c(N2CCNCC2)n1`, the Ratio in the assay filed under Bos taurus was 160. Besides, the values for the Kd in assay [1] and in assay [2] (read-out: Kd) were 19 nM and 3100 nM, respectively.
